Assay results published in US9974825B2, “Peptides Des-[Asp1]-[Ala1], angiotensin-(1-7) agonist and pharmaceutical compositions for the treatment of diseases” (UNIVERSIDADE FEDERAL DE MINAS GERAIS, priority 2008, dated 2018).

Key:
[1] = tested on: aorta rings of Mas+/+ mice; test: Vasorelaxation in phenylephrine-precontracted aorta rings of wild-type (Mas+/+) mice; format: cell-based, mice (C57/BI-6 and FVB/N); details: both lineages C57/BI-6 and FVB/N, precontracted with fenilefrine 0.1 μM
Experimental: This example describes the vasodilating effect of Ala^1-Ang-(1-7), independently of the Mas receptor, on aorta rings of mice with genetic deletion of the Mas receptor (Mas−/−) and wild-type mice (Mas+/+) from two different lineages, C57/BI-6 and FVB/N.
(§1) The original rings of the descending thoracic aorta (2 mm), free from adipose tissue and connective tissue, were incubated in gasified solution (95% O2 and 5% CO2) of Krebs-Henseleit (mmol/L): NaCl 110.8, KCl 5.9, NaHCO3 25.0, MgSO4 1.07, CaCl2 2.49, NaH2PO4 2.33 and glucose 11.51, under a temperature of 37° C. and a 0.5 g tension, being equilibrated for 1 hour. The functional presence of endothelium was tested by its relaxing capacity produced by acetylcholine [ACh] (10 μM) on vessels precontracted with fenilefrine (0.3 μM). Only the vessels showing relaxation above 70% of extended contraction produced by fenilefrine were taken into account. […]
The aorta rings of mice Mas−/− and Mas+/+ from both lineages (C57/BI-6 and FVB/N) were precontracted to achieve the same tension level (approximately a 1.0 g tension) at a submaximum concentration of fenilefrine (0.1 μM). […] The vasodilating effects of Ala^1-Ang-(1-7) and Ang-(1-7) were expressed as a percentage of relaxation relative to the maximum contraction induced by fenilefrine. […]

[2] = tested on: aorta rings of AT2−/− mice; test: Vasorelaxation in precontracted aorta rings of AT2-/- mice; format: cell-based; details: precontracted with fenilefrine 0.1 μM
Experimental: This example describes the vasodilating effect of Ala^1-Ang-(1-7) and Ang-(1-7)—which is independent of the AT2 receptor—on the aorta of mice with genetic deletion of AT2 (AT2−/−) receptor.
as §1, with “account. Data on mechanical activity were isometrically obtained by using an amplified strength transducer (Model TMB-4; World Precision Instruments, Inc. Sarasota, Fla., USA) and converted to digital signal (AD16JR; World Precision Instruments, Inc.).” for “account.”
The aorta rings of AT2−/− mice were precontracted (approx. 1.0 g of tension) with a felinefrine submaximum concentration (0.1 μM). […] The vasodilating effects of Ala^1-Ang-(1-7) and Ang-(1-7) were expressed as a relaxation percentage relative to the maximum contraction induced by fenilefrine. […]

Mas receptor = details: Santos et al., PNAS 2003; cited from earlier work
[3] = tested on: aorta rings in absence of functional endothelium; test: Vasorelaxation in aorta rings without functional endothelium; format: cell-based, mice (C57/BI-6 and FVB/N); details: vessels not presenting functional endothelium (Mas+/+ and Mas−/−, C57/BI-6 and FVB/N)
Experimental: This example describes the endothelium-dependence of the Ala^1-Ang-(1-7) vasorelaxing activity.
as §1, with “μM). In accordance with experimental protocols for its absence, the endothelium was removed with a slight friction on the vessel internal surface.” for “μM).”, “relaxation by acetylcholine” for “relaxation”
The Ala^1-Ang-(1-7) vasorelaxing activity was measured in vessels (Mas+/+ and Mas−/−, of lineages C57/BI-6 and FVB/N) in the presence or absence of precontracted functional endothelium (with approximately a 1.0 g tension) and a submaximum concentration of fenilefrine (0.1 μM). […] The vasodilating effects of Ala^1-Ang-(1-7) and Ang-(1-7) were expressed as a relaxation percentage relative to the maximum contraction induced by fenilefrine. […]

Substance | vasorelaxation (relaxation relative to maximum contraction induced by fenilefrine) [1] | vasodilating effect [2] | Kd (Mas receptor) [nM] | vasodilating effect [3]
Asp^1-Arg^2-Val^3-Tyr^4-Ile^5-His^6-Pro^7 [Ang-(1-7)] | produced vasorelaxation | preserved | 0.33 | –
Ala^1-Arg^2-Val^3-Tyr^4-Ile^5-His^6-Pro^7 [Ala^1-Ang-(1-7)] | produced vasorelaxation | preserved | – | abolished
